Where two headings read alike, the source gives them in different places.
How the values were obtained:
HRV-14 = test: Antirhinoviral H1-HeLa cell culture assay (XTT), HRV-14; type: cell-based, human rhinovirus; settings: Rhinovirus B, HRV14
Experimental: (§1) Antirhinoviral H1-HeLa Cell Culture Assay
(§2) In this cell protection assay, the ability of compounds to protect cells against HRV infection was measured by the XTT dye reduction method, which is described in Weislow et al., J. Natl. Cancer Inst. 1989, vol. 81, 577-586.
(§3) H1-HeLa cells were infected with HRV-14 at a multiplicity of infection (m.o.i.) of 0.13 (virus particles/cell) or mock-infected with medium only. Infected or mock-infected cells were resuspended at 8×10^5 cells per mL, and incubated with appropriate concentrations of the compounds to be tested. Two days later, XTT/PMS was added to test plates and the amount of formazan produced was quantified spectrophotometrically at 450/650 nm. The EC50 value was calculated as the concentration of compound that increased the percentage of formazan production in compound-treated, virus-infected cells to 50% of that produced by compound-free, mock-infected cells. The 50% cytotoxic dose (CC50) was calculated as the concentration of compound that decreased the percentage of formazan produced in compound-treated, mock-infected cells to 50% of that produced by compound-free, mock-infected cells. The therapeutic index (TI) was calculated by dividing the CC50 value by the EC50 value.
(§4) All strains of human rhinovirus (HRV) for use in this assay were purchased from American Type Culture Collection (ATCC), except for HRV serotype-14 (produced from the infectious cDNA clone constructed by Dr. Robert Rueckert, Institute for Molecular Virology, University of Wisconsin, Madison, Wis.). HRV stocks were propagated and viral assays were performed in H1-HeLa cells (ATCC). Cells were grown in minimal essential medium with 10% fetal bovine serum, available from Life Technologies (Gaithersburg, Md.).
The compounds were tested against control compounds WIN 51711, WIN 52084, and WIN 54954 (obtained from Sterling-Winthrop Pharmaceuticals), Pirodavir (obtained from Janssen Pharmaceuticals), and Pleconaril (prepared according to the method described in Diana et al., J. Med. Chem 1995, vol. 38, 1355). Antiviral data obtained for the test compounds are shown in Tables 1 and 3, where all data are for HRV serotype-14 unless otherwise noted in parentheses.

HRV serotype 2 = test: Antirhinoviral H1-HeLa cell culture assay (XTT), HRV-2; type: cell-based; settings: Human rhinovirus sp., H1-HeLa cells
Experimental: as §1, §2
as §3, with “value. […]” for “value.”

HRV serotype 1A = test: Antirhinoviral H1-HeLa cell culture assay (XTT), HRV-1A; type: cell-based, human rhinovirus; settings: Human rhinovirus sp., H1-HeLa cells
Experimental: as §1, §2, §3, §4
(§5) The compounds were tested against control compounds WIN 51711, WIN 52084, and WIN 54954 (obtained from Sterling-Winthrop Pharmaceuticals), Pirodavir (obtained from Janssen Pharmaceuticals), and Pleconaril (prepared according to the method described in Diana et al., J. Med. Chem 1995, vol. 38, 1355). […]

HRV serotype 39 = test: Antirhinoviral H1-HeLa cell culture assay (XTT), HRV-39; type: cell-based; settings: Human rhinovirus sp., H1-HeLa cells
Experimental: as §1, §2
as §3, with “value. […]” for “value.”

HRV serotype 16 = test: Antirhinoviral H1-HeLa cell culture assay (XTT), HRV-16; type: cell-based; settings: Human rhinovirus sp., H1-HeLa cells
Experimental: as §1, §2
as §3, with “value. […]” for “value.”

HRV serotype 89 = test: Antirhinoviral H1-HeLa cell culture assay (XTT), HRV-89; type: cell-based; settings: Human rhinovirus sp., H1-HeLa cells
Experimental: as §1, §2
as §3, with “value. […]” for “value.”

HRV serotype 10 = test: Antirhinoviral H1-HeLa cell culture assay (XTT), HRV-10; type: cell-based, human rhinovirus; settings: Human rhinovirus sp., H1-HeLa cells
Experimental: as §1, §2, §3, §4, §5

HRV serotype 3 = test: Antirhinoviral H1-HeLa cell culture assay (XTT), HRV-3; type: cell-based; settings: Human rhinovirus sp., H1-HeLa cells
Experimental: as §1, §2
as §3, with “value. […]” for “value.”

HRV serotype 9 = test: Antirhinoviral H1-HeLa cell culture assay (XTT), HRV-9; type: cell-based; settings: Human rhinovirus sp., H1-HeLa cells
Experimental: as §1, §2
as §3, with “value. […]” for “value.”

HRV serotype 12 = test: Antirhinoviral H1-HeLa cell culture assay (XTT), HRV-12; type: cell-based; settings: Human rhinovirus sp., H1-HeLa cells
Experimental: as §1, §2
as §3, with “value. […]” for “value.”

HRV serotype 13 = test: Antirhinoviral H1-HeLa cell culture assay (XTT), HRV-13; type: cell-based; settings: Human rhinovirus sp., H1-HeLa cells
Experimental: as §1, §2
as §3, with “value. […]” for “value.”

HRV serotype 17 = test: Antirhinoviral H1-HeLa cell culture assay (XTT), HRV-17; type: cell-based; settings: Human rhinovirus sp., H1-HeLa cells
Experimental: as §1, §2
as §3, with “value. […]” for “value.”

HRV serotype 25 = test: Antirhinoviral H1-HeLa cell culture assay (XTT), HRV-25; type: cell-based; settings: Human rhinovirus sp., H1-HeLa cells
Experimental: as §1, §2
as §3, with “value. […]” for “value.”

HRV serotype 30 = test: Antirhinoviral H1-HeLa cell culture assay (XTT), HRV-30; type: cell-based; settings: Human rhinovirus sp., H1-HeLa cells
Experimental: as §1, §2
as §3, with “value. […]” for “value.”

HRV serotype 38 = test: Antirhinoviral H1-HeLa cell culture assay (XTT), HRV-38; type: cell-based; settings: Human rhinovirus sp., H1-HeLa cells
Experimental: as §1, §2
as §3, with “value. […]” for “value.”

HRV serotype 87 = test: Antirhinoviral H1-HeLa cell culture assay (XTT), HRV-87; type: cell-based; settings: Human rhinovirus sp., H1-HeLa cells
Experimental: as §1, §2
as §3, with “value. […]” for “value.”

[1] = Cytotoxicity in mock-infected H1-HeLa cells (antirhinoviral assay, XTT); type: cell-based; settings: human, 50% cytotoxic dose
Experimental: as §3, §4

[2] = test system: Coxsackievirus type A-21 (CAV-21); test: Anticoxsackieviral cell culture assay (XTT), CAV-21; type: cell-based; settings: Coxsackievirus, H1-HeLa
Experimental: (§6) Anticoxsackieviral Cell Culture Assay
(§7) Coxsackievirus types A-21 (CAV-21) and B3 (CVB-3) were purchased from American Type Culture Collection (ATCC, Rockville, Md.). Virus stocks were propagated and antiviral assays were performed in H1-HeLa cells (ATCC). Cells were grown in minimal essential medium with 10% fetal bovine serum (Life Technologies, Gaithersburg, Md.).
(§8) The ability of compounds to protect cells against either CAV-21 or CVB-3 infection was measured by the XTT dye reduction method. This method is described in Weislow et al., J. Natl. Cancer Inst. 1989, vol. 81, 577-586. H1-HeLa cells were infected with CAV-21 or CVB-3 at a multiplicity of infection (m.o.i.) of 0.025 or 0.075, respectively, or mock-infected with medium only. H1-HeLa cells were plated at 4×10^4 cells per well in a 96-well plate and incubated with appropriate concentrations of the test compound. One day (CVB-3) or two days (CAV-21) later, XTT/PMS was added to test plates and the amount of formazan produced was quantified spectrophotometrically at 450/650 nm. The EC50 was calculated as the concentration of compound that increased the formazan production in compound-treated, virus-infected cells to 50% of that produced by compound-free, uninfected cells. […] The therapeutic index (TI) was calculated by dividing the CC50 by the EC50. […]

[3] = test system: Coxsackievirus type B3 (CVB-3); test: Anticoxsackieviral cell culture assay (XTT), CVB-3; type: cell-based; settings: Coxsackievirus, H1-HeLa
Experimental: as §6, §7, §8

[4] = Cytotoxicity in uninfected H1-HeLa cells (anticoxsackieviral assay, XTT); type: cell-based; settings: human; 50% cytotoxic dose, uninfected H1-HeLa cells (Table 4)
Experimental: as §7
The ability of compounds to protect cells against either CAV-21 or CVB-3 infection was measured by the XTT dye reduction method. This method is described in Weislow et al., J. Natl. Cancer Inst. 1989, vol. 81, 577-586. H1-HeLa cells were infected with CAV-21 or CVB-3 at a multiplicity of infection (m.o.i.) of 0.025 or 0.075, respectively, or mock-infected with medium only. H1-HeLa cells were plated at 4×10^4 cells per well in a 96-well plate and incubated with appropriate concentrations of the test compound. One day (CVB-3) or two days (CAV-21) later, XTT/PMS was added to test plates and the amount of formazan produced was quantified spectrophotometrically at 450/650 nm. The EC50 was calculated as the concentration of compound that increased the formazan production in compound-treated, virus-infected cells to 50% of that produced by compound-free, uninfected cells. The 50% cytotoxic dose (CC50) was calculated as the concentration of compound that decreased formazan production in compound-treated, uninfected cells to 50% of that produced in compound-free, uninfected cells. The therapeutic index (TI) was calculated by dividing the CC50 by the EC50.

[5] = test system: Echovirus type 11 (EV 11); test: Anti-echoviral cell culture assay (XTT), EV 11; type: cell-based; settings: Enterovirus B, MRC5
Experimental: (§9) Anti-Echoviral and -Enteroviral Cell Culture Assays
(§10) Echovirus type 11 (EV 11) and enterovirus type 70 (EV 70) were purchased from ATCC (Rockville, Md.). Virus stocks were propagated and antiviral assays were performed in MRC-5 cells (ATCC). Cells were grown in minimal essential medium with 10% fetal bovine serum (Life Technologies, Gaithersburg, Md.).
(§11) The ability of compounds to protect cells against either EV 11 or EV 70 infection was measured by the XTT dye reduction method (Weislow et al., J. Natl. Cancer Inst. 1989, vol. 81, 577-586). MRC-5 cells were infected with EV 11 or EV 70 at an m.o.i. of 0.003 or 0.004, respectively, or mock-infected with medium only. Infected or uninfected cells were added at 1×10^4 cells per well and incubated with appropriate concentrations of compound. Four days later, XTT/PMS was added to test plates, and the amount of formazan produced was quantified spectrophotometrically at 450/650 nm. The EC50 was calculated as the concentration of compound that increased the formazan production in compound-treated, virus-infected cells to 50% of that produced by compound-free, uninfected cells. […] The therapeutic index (TI) was calculated by dividing the CC50 by the EC50. […]

[6] = test system: enterovirus type 70 (EV 70); test: Anti-enteroviral cell culture assay (XTT), EV 70; type: cell-based; settings: Enterovirus D, MRC5
Experimental: as §9, §10, §11

[7] = Cytotoxicity in uninfected MRC-5 cells (anti-echoviral/-enteroviral assay, XTT); type: cell-based; settings: human, 50% cytotoxic dose
Experimental: as §10
The ability of compounds to protect cells against either EV 11 or EV 70 infection was measured by the XTT dye reduction method (Weislow et al., J. Natl. Cancer Inst. 1989, vol. 81, 577-586). MRC-5 cells were infected with EV 11 or EV 70 at an m.o.i. of 0.003 or 0.004, respectively, or mock-infected with medium only. Infected or uninfected cells were added at 1×10^4 cells per well and incubated with appropriate concentrations of compound. Four days later, XTT/PMS was added to test plates, and the amount of formazan produced was quantified spectrophotometrically at 450/650 nm. The EC50 was calculated as the concentration of compound that increased the formazan production in compound-treated, virus-infected cells to 50% of that produced by compound-free, uninfected cells. The 50% cytotoxic dose (CC50) was calculated as the concentration of compound that decreased formazan production in compound-treated, uninfected cells to 50% of that produced in compound-free, uninfected cells. The therapeutic index (TI) was calculated by dividing the CC50 by the EC50.

With `CCOC(=O)/C=C/[C@H](C[C@@H]1CCNC1=O)NC(=O)[C@H](Cc1ccc(F)cc1)NC(=O)[C@@H](NC(=O)c1cc(C)on1)C(C)C` [(A-5), Ethyl-3-{(5′-Methylisoxazole-3′-carbonyl)-L-Val-L-(4-F-Phe)-L-((S)-Pyrrol-Ala)}-E-Propenoate] the EC50 (HRV-14; HRV serotype-14, H1-HeLa cells (Table 1), read-out: Cell Protection EC50) was 5 nM, the EC50 (HRV-14; HRV serotype-14, H1-HeLa cells (Table 3), read-out: EC50) was 5 nM and the EC50 (HRV serotype 2) was 10 nM. The EC50 (HRV serotype 1A) was 30 nM, the EC50 (HRV serotype 39) was 20 nM and the EC50 (HRV serotype 16) was 20 nM. The EC50 (HRV serotype 89) was 20 nM, the EC50 (HRV serotype 10) was 50 nM and the EC50 (HRV serotype 3) was 50 nM. The EC50 (HRV serotype 9) was 40 nM, the EC50 (HRV serotype 12) was 60 nM and the EC50 (HRV serotype 13) was 20 nM. For the same compound, the EC50 (HRV serotype 17) was 20 nM, the EC50 (HRV serotype 25) was 180 nM and the EC50 (HRV serotype 30) was 60 nM. For the same compound, the EC50 (HRV serotype 38) was 130 nM, the EC50 (HRV serotype 87) was 210 nM and the CC50 at 2 days [1] was > 10000 nM. For the same compound, the EC50 [2] was 230 nM, the EC50 [3] was 1000 nM and the CC50 [4] was > 10000 nM. For the same compound, the EC50 [5] was 80 nM, the EC50 [6] was 40 nM and the CC50 at 4 days [7] was > 10000 nM. The melting point was 219 to 220 °C.
In the case of `CCOC(=O)/C=C/[C@H](C[C@@H]1CCNC1=O)NC(=O)[C@H](Cc1ccc(F)cc1)NC(=O)[C@@H](NC(=O)c1cc(C)on1)C(C)(C)C` [(A-7), Ethyl-3-{(5′-Methylisoxazole-3′-carbonyl)-L-α-(t-Butyl-Gly)-L-(4-F-Phe)-L-((S)-Pyrrol-Ala)}-E-Propenoate], the EC50 (HRV serotype 12) is reported as 70 nM, the EC50 (HRV serotype 25) is reported as 200 nM and the EC50 (HRV serotype 30) is reported as 90 nM. The EC50 (HRV serotype 38) was 170 nM, the EC50 (HRV serotype 87) was 590 nM and the CC50 at 2 days [1] was > 10000 nM.

Source: US6906198B1, “Antipicornaviral compounds, their preparation and use” (Agouron Pharmaceuticals, Inc., priority 1998, dated 2005)
